# Laboratory results: ChEMBL document CHEMBL5108031, “Novel N-(4-thiocyanatophenyl)-1H-1,2,3-triazole-4-carboxamides exhibit selective cytotoxic activity at nanomolar doses towards human leukemic T-cells” (Eur J Med Chem, 2022)
# Active and inactive are the calls of the source. No cut-off for these calls is given here.
# Legend:
# HL-60(TB) [1] = assay: Antiproliferative activity against human HL-60(TB) cells assessed as relative cell growth at 10 uM incubated for 48 hrs and measured by SRB assay; type: functional; settings: read-out: Activity
# RXF 393 = assay: Antiproliferative activity against human RXF 393 cells incubated for 48 hrs and measured by SRB assay; type: functional
# K562 [2] = assay: Antiproliferative activity against human K562 cells assessed as relative cell growth at 10 uM incubated for 48 hrs and measured by SRB assay; type: functional; settings: read-out: Activity
# HEK293 = assay: Antiproliferative activity against human HEK293 cells incubated for 72 hrs and measured by MTT assay; type: functional
# HOP-92 = assay: Antiproliferative activity against human HOP-92 cells incubated for 48 hrs and measured by SRB assay; type: functional
# NCI-H522 = assay: Antiproliferative activity against human NCI-H522 cells incubated for 48 hrs and measured by SRB assay; type: functional
# SF-295 [3] = assay: Antiproliferative activity against human SF-295 cells assessed as relative cell growth at 10 uM incubated for 48 hrs and measured by SRB assay; type: functional; settings: read-out: Activity
# DNA = assay: Binding affinity to DNA (unknown origin) assessed as DNA intercalation at 1 to 100 uM by measuring amount of methyl green dye replaced from DNA-methyl green complex; type: nucleic-acid assay; settings: Homo sapiens; dose 1-100 µM
# A498 = assay: Antiproliferative activity against human A498 cells assessed as relative cell growth at 10 uM incubated for 48 hrs and measured by SRB assay; type: functional; settings: read-out: Activity
# NCI-H460 [4] = assay: Antiproliferative activity against human NCI-H460 cells assessed as relative cell growth at 10 uM incubated for 48 hrs and measured by SRB assay; type: functional; settings: read-out: Activity
# LOX IMVI [5] = assay: Antiproliferative activity against human LOX IMVI cells assessed as relative cell growth at 10 uM incubated for 48 hrs and measured by SRB assay; type: functional; settings: read-out: Activity
# HeLa = assay: Antiproliferative activity against human HeLa cells incubated for 72 hrs and measured by MTT assay; type: functional
# Jurkat [6] = assay: Antiproliferative activity against human Jurkat cells incubated for 72 hrs and measured by MTT assay; type: functional
# NCI-H460 [7] = assay: Antiproliferative activity against human NCI-H460 cells incubated for 48 hrs and measured by SRB assay; type: functional, cell-based; settings: NCI-H460, 48 h
# KB 3-1 = assay: Antiproliferative activity against human KB 3-1 cells incubated for 72 hrs and measured by MTT assay; type: functional
# Jurkat [8] = assay: Induction of DNA damage in human Jurkat cells assessed as olive tail moment at 0.5 uM measured after 24 hrs by comet assay; type: functional
# Jurkat [9] = assay: Induction of apoptosis in human Jurkat cells assessed as cell debris at 0.5 uM measured after 24 hrs by Hoechst 33342/propidium iodide staining based fluorescence microscopic analysis; type: functional
# K562 [10] = assay: Antiproliferative activity against human K562 cells incubated for 72 hrs and measured by MTT assay; type: functional
# LOX IMVI [11] = assay: Antiproliferative activity against human LOX IMVI cells incubated for 48 hrs and measured by SRB assay; type: functional
# SR [12] = assay: Antiproliferative activity against human SR cells assessed as relative cell growth at 10 uM incubated for 48 hrs and measured by SRB assay; type: functional; settings: read-out: Activity
# HCC 2998 = assay: Antiproliferative activity against human HCC 2998 cells assessed as relative cell growth at 10 uM incubated for 48 hrs and measured by SRB assay; type: functional; settings: read-out: Activity
# Jurkat [13] = assay: Induction of apoptosis in human Jurkat cells assessed as fragmented DNA and nuclei at 0.5 uM measured after 24 hrs by Hoechst 33342/propidium iodide staining based fluorescence microscopic analysis; type: functional, cell-based
# THP-1 = assay: Antiproliferative activity against human THP-1 cells incubated for 72 hrs and measured by MTT assay; type: functional
# HaCaT = assay: Antiproliferative activity against human HaCaT cells incubated for 72 hrs and measured by MTT assay; type: functional
# SR [14] = assay: Antiproliferative activity against human SR cells incubated for 48 hrs and measured by SRB assay; type: functional
# Malme-3M = assay: Antiproliferative activity against human Malme-3M cells assessed as relative cell growth at 10 uM incubated for 48 hrs and measured by SRB assay; type: functional; settings: read-out: Activity
# HCT-116 [15] = assay: Antiproliferative activity against p53-deficient human HCT-116 cells incubated for 72 hrs and measured by MTT assay; type: functional
# COLO 205 = assay: Antiproliferative activity against human COLO 205 cells assessed as relative cell growth at 10 uM incubated for 48 hrs and measured by SRB assay; type: functional; settings: read-out: Activity
# Jurkat [16] = assay: Induction of apoptosis in human Jurkat cells assessed as appearance of apoptotic bodies at 0.5 uM measured after 24 hrs by Hoechst 33342/propidium iodide staining based fluorescence microscopic analysis; type: functional, cell-based
# CCRF-CEM = assay: Antiproliferative activity against human CCRF-CEM cells assessed as relative cell growth at 10 uM incubated for 48 hrs and measured by SRB assay; type: functional; settings: read-out: Activity
# UO-31 [17] = assay: Antiproliferative activity against human UO-31 cells assessed as relative cell growth at 10 uM incubated for 48 hrs and measured by SRB assay; type: functional; settings: read-out: Activity
# Jurkat [18] = assay: Induction of apoptosis in human Jurkat cells assessed as condensed chromatin at 0.5 uM measured after 24 hrs by Hoechst 33342/propidium iodide staining based fluorescence microscopic analysis; type: functional, cell-based
# SF-539 = assay: Antiproliferative activity against human SF-539 cells assessed as relative cell growth at 10 uM incubated for 48 hrs and measured by SRB assay; type: functional; settings: read-out: Activity
# TK-10 = assay: Antiproliferative activity against human TK-10 cells incubated for 48 hrs and measured by SRB assay; type: functional
# MOLT-4 = assay: Antiproliferative activity against human MOLT-4 cells assessed as relative cell growth at 10 uM incubated for 48 hrs and measured by SRB assay; type: functional; settings: read-out: Activity
# CAKI-1 = assay: Antiproliferative activity against human CAKI-1 cells assessed as relative cell growth at 10 uM incubated for 48 hrs and measured by SRB assay; type: functional; settings: read-out: Activity
# WM793 = assay: Antiproliferative activity against human WM793 cells incubated for 72 hrs and measured by MTT assay; type: functional
# Jurkat [19] = assay: Induction of apoptosis in human Jurkat cells assessed as decrease in mitochondrial membrane potential at 0.5 uM measured after 24 hrs by Rhodamine 123 fluorescence based assay; type: functional, cell-based
# Jurkat [20] = assay: Induction of DNA damage in human Jurkat cells assessed as DNA fragmentation at 0.5 uM measured by Diphenylamine assay; type: functional
# MDA-MB-231 = assay: Antiproliferative activity against human MDA-MB-231 cells incubated for 72 hrs and measured by MTT assay; type: functional
# A549 = assay: Antiproliferative activity against human A549 cells incubated for 72 hrs and measured by MTT assay; type: functional
# Jurkat [21] = assay: Induction of DNA damage in human Jurkat cells assessed as tail DNA at 0.5 uM measured after 24 hrs by comet assay; type: functional
# MCF7 = assay: Antiproliferative activity against human MCF7 cells incubated for 72 hrs and measured by MTT assay; type: functional
# SF-295 [22] = assay: Antiproliferative activity against human SF-295 cells incubated for 48 hrs and measured by SRB assay; type: functional
# [23] = target: Heat shock protein HSP 90-alpha (Homo sapiens, UniProt P07900); assay: Inhibition of Hsp90alpha (unknown origin)
# Jurkat [24] = assay: Induction of apoptosis in human Jurkat cells assessed as cellular membrane blebbing at 0.5 uM measured after 24 hrs by Hoechst 33342/propidium iodide staining based fluorescence microscopic analysis; type: functional, cell-based
# MDA-MB-468 = assay: Antiproliferative activity against human MDA-MB-468 cells assessed as relative cell growth at 10 uM incubated for 48 hrs and measured by SRB assay; type: functional; settings: read-out: Activity
# HL-60(TB) [25] = assay: Antiproliferative activity against human HL-60(TB) cells incubated for 48 hrs and measured by SRB assay; type: functional
# BALB/3T3 = assay: Antiproliferative activity against mouse BALB/3T3 cells incubated for 72 hrs and measured by MTT assay; type: functional
# UO-31 [26] = assay: Antiproliferative activity against human UO-31 cells incubated for 48 hrs and measured by SRB assay; type: functional
# SK-OV-3 = assay: Antiproliferative activity against human SK-OV-3 cells incubated for 72 hrs and measured by MTT assay; type: functional
# HCT-116 [27] = assay: Antiproliferative activity against human HCT-116 cells incubated for 72 hrs and measured by MTT assay; type: functional
# [28] = read-out: LC50 (the source's name)
compound,measurement,setting,value
Cc1c(C(=O)Nc2ccc(SC#N)cc2)nnn1-c1ccc(C(C)C)cc1,growth at 10 µM,HL-60(TB) [1],8.6%
same,GI50,RXF 393,4.27 µM
same,TGI,RXF 393,20.4 µM
same,CC50,RXF 393; [28],69.5 µM
same,growth at 10 µM,K562 [2],10.3%
same,GI50,HEK293,> 100 µM
same,GI50,HOP-92,2.85 µM
same,TGI,HOP-92,10.2 µM
same,CC50,HOP-92; [28],62 µM
same,GI50,NCI-H522,1.97 µM
same,TGI,NCI-H522,5.81 µM
same,CC50,NCI-H522; [28],> 100 µM
same,growth at 10 µM,SF-295 [3],4.89%
same,Activity,DNA,2.4%
same,growth at 10 µM,A498,93.6%
same,growth at 10 µM,NCI-H460 [4],13.7%
same,growth at 10 µM,LOX IMVI [5],-53.1%
same,GI50,HeLa,> 100 µM
same,GI50,Jurkat [6],0.69 µM
same,IC50,NCI-H460 [7],0.028 µM
same,GI50,KB 3-1,7.4 µM
same,Activity,Jurkat [8],1.3
same,Activity,Jurkat [9],Active
same,GI50,K562 [10],5.4 µM
same,GI50,LOX IMVI [11],0.15 µM
same,TGI,LOX IMVI [11],1.12 µM
same,CC50,LOX IMVI [11]; [28],4.48 µM
same,growth at 10 µM,SR [12],-19.9%
same,growth at 10 µM,HCC 2998,82.6%
same,Activity,Jurkat [13],Active
same,GI50,THP-1,> 100 µM
same,GI50,HaCaT,> 100 µM
same,GI50,SR [14],1.77 µM
same,TGI,SR [14],5.51 µM
same,CC50,SR [14]; [28],> 100 µM
same,growth at 10 µM,Malme-3M,95.1%
same,GI50,HCT-116 [15],8.4 µM
same,growth at 10 µM,COLO 205,89.4%
same,Activity,Jurkat [16],Active
same,growth at 10 µM,CCRF-CEM,-13.3%
same,growth at 10 µM,UO-31 [17],-17.1%
same,Activity,Jurkat [18],Active
same,growth at 10 µM,SF-539,2.96%
same,GI50,TK-10,3.21 µM
same,TGI,TK-10,9.94 µM
same,CC50,TK-10; [28],> 100 µM
same,growth at 10 µM,MOLT-4,-17.6%
same,growth at 10 µM,CAKI-1,-53.2%
same,GI50,WM793,> 100 µM
same,Activity,Jurkat [19],Active
same,Activity,Jurkat [20],26.7%
same,GI50,MDA-MB-231,> 100 µM
same,GI50,A549,> 100 µM
same,Activity,Jurkat [21],8.5%
same,GI50,MCF7,> 100 µM
same,GI50,SF-295 [22],2.71 µM
same,TGI,SF-295 [22],9.79 µM
same,CC50,SF-295 [22]; [28],> 100 µM
same,IC50,[23],0.023 µM
same,Activity,Jurkat [24],Active
same,growth at 10 µM,MDA-MB-468,80.1%
same,GI50,HL-60(TB) [25],2.8 µM
same,TGI,HL-60(TB) [25],11.5 µM
same,CC50,HL-60(TB) [25]; [28],> 100 µM
same,GI50,BALB/3T3,> 100 µM
same,GI50,UO-31 [26],2.88 µM
same,TGI,UO-31 [26],15.5 µM
same,CC50,UO-31 [26]; [28],> 100 µM
same,GI50,SK-OV-3,10 µM
same,GI50,HCT-116 [27],> 100 µM
